In US20220033432A1, “ANTI-HEPATITIS B VIRUS AGENT” (priority 2019, published 2022) one finds EC50 and CC50 data, which are given here for seven compounds.

Data set [1] concerns HBV. The data set can be described thus: Anti-HBV activity: intracellular HBV DNA by quantitative PCR in HepG2.2.15 cells. It counts as cell-based. The note with it: Hepatitis B virus, read-out: EC50 (50% effective concentration), anti-HBV activity. Here is the method:
Anti-HBV activity was evaluated by quantitative PCR for determining the amount of HBV DNA in cells on the seventh day after the addition of the agent, using the HepG2.2.15 cell line of HBV-producing cells obtained by introducing a gene having a length twice that of the HBV genome into the human liver cancer cell line HepG2. For PCR of HBV DNA, a forward primer (HBV-S190F; 5′-GCT CGT OTT ACA GGC GGG-3′: SEQ ID NO: 1) and a reverse primer (HBV-S703R; 5′-GAA CCA CTG AAC AAA TOG CAC TAG TA-3′: SEQ ID NO: 2) were used. PCR was performed by carrying out a reaction at 95° C. for 10 sec, 62° C. for 10 sec, and 72° C. for 30 sec for 35 cycles.
Specifically, HepG2.2.15 cells were seeded at a concentration of 1×10^5 cells/well. 24 hours later, the compounds of Example 1 and Comparative Example 1 were diluted to have a concentration of 0, 0.49, 0.97, 1.95, 3.90, 7.81, 15.6, 31.3, 62.5, 125, 250, 500, and 1000 nM, and added to the cells. After the cells were cultured for 7 days, each cytoplasmic compartment was collected, and DNA was purified by phenol-chloroform extraction. 20 ng of the purified DNA was used to measure the amount of intracellular HBV DNA by quantitative PCR.
The EC50 (50% effective concentration) was calculated from a graph showing the relationship between the concentration of the compound and anti-HBV activity.

The nature of data set [2]: Cytotoxicity test (WST-1) in HepG2 NTCP-myc cells. The data set is classed as cell-based. The note with it: human, 7 days culture, read-out: CC50 (50% cytotoxic concentration). Here is the method: HepG2 NTCP-myc cells were seeded at a concentration of 2×10^4 cells/well. 24 hours later, the compound of Example 1 was diluted to have a concentration of 0, 0.49, 0.97, 1.95, 3.90, 7.81, 15.6, 31.3, 62.5, 125, 250, 500, and 1000 nM, and added to the cells. The HepG2 NTCP-myc cells were cultured for 7 days. After the culture, 10 μl of Premix WST-1 Cell Proliferation Assay System (TaKaRa) was added, and the cells were cultured at 37° C. for 2 hours. Thereafter, absorbance was determined at 450 nm using a microplate reader.
The CC50 (50% cytotoxic concentration) was calculated from a graph showing the relationship between the concentration of the compound and cytotoxicity.
For orientation: Tetrazolium dyes change colour on reduction, which living cells bring about.

Setting [3] is: 168 h, HepG2.2.15 cells, intracellular HBV DNA, day 7 after addition.

Molecules are shown by their SMILES. Where two headings read alike, the source gives them in different places.

Turning to `COc1nc(N)nc2c1ncn2[C@@H]1O[C@H](CO)C(O)C1F` (stereo partly drawn) [Example 5, 9-(2′-deoxy-2′-fluoro-β-D-arabinofuranos-1′-yl)-2-amino-6-methoxypurine], in data set [1] (setting [3]), the EC50 worked out at 1.63 µM. Moreover, the CC50 at 7 days in data set [2] is more than 500 µM.

Take `Nc1nc(N)c2ncn([C@@H]3O[C@H](CO)C(O)C3F)c2n1` (stereo partly drawn) [Example 4, 9-(2′-deoxy-2′-fluoro-β-D-arabinofuranos-1′-yl)-2-amino-6-aminopurine]: the EC50 in data set [1] (HepG2.2.15, 168 h) was 2.02 µM. Moreover, the CC50 at 7 days in data set [2] was more than 500 µM.

With `Nc1nc(I)c2ncn([C@@H]3O[C@H](CO)C(O)C3F)c2n1` (stereo partly drawn) [Example 3, 9-(2′-deoxy-2′-fluoro-β-D-arabinofuranos-1′-yl)-2-amino-6-], the EC50 in data set [1] (setting [3]) stood at 0.99 µM. The CC50 at 7 days in data set [2] was more than 500 µM.

As to `OC[C@H]1O[C@@H](n2cnc3c(Cl)nc(Cl)nc32)[C@@H](F)[C@@H]1O` [Comparative Example 1, 2,6-dichloro-9-((2R,3S,4R,5R)-3-fluoro-4-hydroxy-5-(hydroxymethyl)tetrahydrofuran-2-yl)-9H-purine, reference compound], in data set [1] (setting [3]), the EC50 was more than 10 µM.

Take `Nc1nc(F)c2ncn([C@@H]3O[C@H](CO)C(O)C3F)c2n1` (stereo partly drawn) [Example 2, 9-(2′-deoxy-2′-fluoro-β-D-arabinofuranos-1′-yl)-2-amino-6-fluoropurine]: the EC50 in data set [1] (setting [3]) was 0.88 µM. Moreover, the CC50 at 7 days in data set [2] was found to be 337 µM.

For `Nc1nc(Cl)c2ncn([C@@H]3O[C@H](CO)C(O)C3F)c2n1` (stereo partly drawn) [Example 1, 9-(2′-deoxy-2′-fluoro-β-D-arabinofuranos-1′-yl)-2-amino-6-chloropurine], the EC50 in data set [1] (setting [3]) turned out to be 0.0118 µM. In addition, in data set [2], the CC50 at 7 days is more than 500 µM.

For the compound `N#Cc1nc(N)nc2c1ncn2[C@@H]1O[C@H](CO)C(O)C1F` (stereo partly drawn) [Example 6, 9-(2′-deoxy-2′-fluoro-β-D-arabinofuranos-1′-yl)-2-amino-6-cyanopurine], in data set [1] (setting [3]), the EC50 worked out at 0.93 µM. The CC50 at 7 days in data set [2] was more than 500 µM.
